Source: the supplement of paper PMC10307832

Legend:
Test in all cases: relative viability (nuclei count vs DMSO), 5 days (fraction); higher = more cells survive
Olaparib + Crizotinib = compound: O=C(c1cc(Cc2n[nH]c(=O)c3ccccc23)ccc1F)N1CCN(C(=O)C2CC2)CC1 [Olaparib] + C[C@@H](Oc1cc(-c2cnn(C3CCNCC3)c2)cnc1N)c1c(Cl)ccc(F)c1Cl [Crizotinib] (partner 1 µM)
How it was run: (§1)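 Lung cancer cell lines in 1536-well plates were dosed by pin tool the day after seeding, either with one drug alone or with a fixed anchor-drug dose plus five library-drug doses (not always all listed) in √10 steps. After 5 days, cells were fixed and their nuclei stained in one step (final 0.05% Triton X-100, 1% formaldehyde, 1 ug/ml Hoechst), then counted on 4× images. Relative viability is the nuclei count in treated wells divided by that in vehicle wells. Values are medians of duplicate plates.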

Olaparib + Lapatinib = compound: O=C(c1cc(Cc2n[nH]c(=O)c3ccccc23)ccc1F)N1CCN(C(=O)C2CC2)CC1 [Olaparib] + CS(=O)(=O)CCNCc1ccc(-c2ccc3ncnc(Nc4ccc(OCc5cccc(F)c5)c(Cl)c4)c3c2)o1 [Lapatinib] (partner 2 µM)
How it was run: as §1

Olaparib + Vorinostat = compound: O=C(c1cc(Cc2n[nH]c(=O)c3ccccc23)ccc1F)N1CCN(C(=O)C2CC2)CC1 [Olaparib] + O=C(CCCCCCC(=O)Nc1ccccc1)NO [Vorinostat] (partner 1 µM)
How it was run: as §1

Crizotinib + Dasatinib = compound: C[C@@H](Oc1cc(-c2cnn(C3CCNCC3)c2)cnc1N)c1c(Cl)ccc(F)c1Cl [Crizotinib] + Cc1nc(Nc2ncc(C(=O)Nc3c(C)cccc3Cl)s2)cc(N2CCN(CCO)CC2)n1 [Dasatinib] (partner 0.075 µM)
How it was run: as §1

Row | Cell Line | relative viability (Olaparib + Crizotinib; first compound 0.08 µM) | relative viability (Olaparib + Crizotinib; first compound 0.253 µM) | relative viability (Olaparib + Crizotinib; first compound 2.53 µM) | relative viability (Olaparib + Crizotinib; first compound 8 µM) | relative viability (Olaparib + Lapatinib; first compound 0.08 µM) | relative viability (Olaparib + Lapatinib; first compound 0.253 µM) | relative viability (Olaparib + Lapatinib; first compound 2.53 µM) | relative viability (Olaparib + Lapatinib; first compound 8 µM) | relative viability (Olaparib + Vorinostat; first compound 0.08 µM) | relative viability (Olaparib + Vorinostat; first compound 0.253 µM) | relative viability (Olaparib + Vorinostat; first compound 2.53 µM) | relative viability (Olaparib + Vorinostat; first compound 8 µM) | relative viability (Crizotinib + Dasatinib; first compound 0.01 µM) | relative viability (Crizotinib + Dasatinib; first compound 0.03162 µM) | relative viability (Crizotinib + Dasatinib; first compound 0.1 µM) | relative viability (Crizotinib + Dasatinib; first compound 1 µM) | relative viability (Crizotinib + Dasatinib; first compound 0.3162 µM)
1 | NCI-H1915 | 0.934 | 0.774 | 0.552 | 0.445 | 1.05 | 0.813 | 0.778 | 0.76 | 0.495 | 0.438 | 0.373 | 0.281 | 0.307 | 0.338 | 0.315 | 0.317 | 
2 | LOU-NH91 | 0.785 | 0.71 | 0.721 | 0.744 | 0.83 | 0.77 | 0.733 | 0.735 | 1.17 | 0.904 | 0.939 | 0.983 | 0.523 | 0.547 | 0.623 | 0.486 | 0.554
3 | EKVX | 1.13 | 0.831 | 1.08 | 0.98 | 0.228 | 0.162 | 0.209 | 0.213 | 0.667 | 0.679 | 0.776 | 0.646 | 0.372 | 0.572 | 0.514 | 0.648 | 0.492
4 | SK-LU-1 | 1.15 | 0.774 | 0.801 | 0.621 | 1.2 | 0.803 | 0.83 | 0.683 | 0.847 | 0.705 | 0.726 | 0.545 | 0.178 | 0.16 | 0.181 | 0.159 | 0.189
5 | LXF-289 | 0.907 | 0.799 | 0.889 | 0.875 | 0.929 | 0.871 | 0.97 | 0.973 | 0.81 | 0.731 | 0.807 | 0.722 | 0.306 | 0.209 | 0.223 | 0.247 | 0.184
6 | NCI-H2009 | 1.19 | 0.999 | 1.06 | 1.01 | 0.934 | 0.975 | 0.884 | 0.606 | 0.836 | 0.666 | 0.674 | 0.645 | 0.265 | 0.296 | 0.253 | 0.275 | 0.249
7 | HCC-827 | 0.941 | 0.908 | 0.949 | 0.814 | 0.239 | 0.202 | 0.194 | 0.176 | 0.818 | 0.723 | 0.893 | 0.766 | 0.287 | 0.289 | 0.255 | 0.326 | 0.225
8 | NCI-H3122 | 0.266 | 0.292 | 0.266 | 0.28 | 1.02 | 0.934 | 0.936 | 0.946 | 1.17 | 0.932 | 0.986 | 0.789 | 0.786 | 0.799 | 0.836 | 0.735 | 0.74
9 | NCI-H2126 | 1.12 | 0.967 | 0.957 | 0.969 | 0.845 | 0.766 | 0.759 | 0.784 | 0.803 | 0.773 | 0.819 | 0.777 | 0.484 | 0.646 | 0.569 | 0.545 | 0.557
10 | HARA | 1.04 | 0.93 | 1.08 | 0.803 | 0.836 | 0.725 | 0.699 | 0.763 | 0.45 | 0.472 | 0.553 | 0.507 | 0.28 | 0.279 | 0.256 | 0.198 | 
11 | LC-2-ad | 0.368 | 0.388 | 0.472 | 0.406 | 1.08 | 0.89 | 0.905 | 0.597 | 0.749 | 0.604 | 0.66 | 0.495 | 0.46 | 0.586 | 0.595 | 0.453 | 0.382
12 | UMC-11 | 0.757 | 0.502 | 0.492 | 0.265 | 1.08 | 0.928 | 0.643 | 0.365 | 0.392 | 0.324 | 0.365 | 0.208 | 0.381 | 0.468 | 0.426 | 0.502 | 0.282
13 | EMC-BAC-2 | 0.767 | 0.727 | 0.638 | 0.603 | 0.921 | 0.88 | 0.852 | 0.758 | 0.584 | 0.405 | 0.703 | 0.446 | 0.369 | 0.313 | 0.282 | 0.331 | 0.363
14 | COR-L 105 | 0.866 | 0.668 | 0.621 | 0.522 | 0.341 | 0.348 | 0.363 | 0.317 | 0.782 | 0.717 | 0.781 | 0.79 | 0.36 | 0.328 | 0.324 | 0.257 | 0.303
15 | NCI-H596 | 0.736 | 0.866 | 1.02 | 0.833 | 1.09 | 0.988 | 1.06 | 0.73 | 0.696 | 0.529 | 0.551 | 0.397 | 0.634 | 0.594 | 0.677 | 0.722 | 0.658
16 | NCI-H2347 | 0.672 | 0.657 | 0.705 | 0.622 | 0.972 | 0.949 | 0.957 | 0.767 | 0.577 | 0.568 | 0.588 | 0.398 | 0.305 | 0.272 | 0.312 | 0.25 | 0.244
17 | HCC-78 | 0.395 | 0.356 | 0.396 | 0.368 | 0.853 | 0.522 | 1.01 | 0.666 | 0.443 | 0.429 | 0.377 | 0.557 |  | 0.335 | 0.448 | 0.322 | 0.361
